Like-named read-outs stand apart in the source and are kept apart here.
Legend:
[1] = tested on: Salinispora tropica NPS021184; conditions: NPS21184, day 6 production culture
Method: (§1) The first seed cultures (100 mL medium) in 500-mL Erlenmeyer flasks were incubated for 96 hours before inoculating 5 mL of the first seed culture into the second seed medium with the same composition as the first seed medium. The second seed cultures (100 mL medium in 500-mL Erlenmeyer flask) were incubated for 48 hours before inoculating 5 mL of the second seed culture into the production medium (100 mL in a 500-mL Erlenmeyer flask).
(§2) Per liter of DI H2O, the production medium consisted of: 10 g Starch, 4 g Hy Soy, 4 g Yeast Extract, 1 g CaCO3, 40 mg Fe2(SO4)3, and 100 mg KBr. The production medium was then supplemented with a chemically defined salt formulation consisted of the following common salt components along with different levels of NaCl:
(§3) The NaCl levels used were 0, 5, 10, 15, 20, 24 and 30 g/L. About […], sterile XAD-7 resin slurry was added to the production cultures in a final concentration of 20 g/L. The production culture was then further incubated and harvested at various time points to determine productivity.

[2] = tested on: Salinispora tropica CNB440; conditions: CNB440, day 6 production culture
Method: as §1, §2, §3

[3] = tested on: Salinispora tropica CNB476; conditions: CNB476, day 6 production culture
Method: as §1, §2, §3

Compound: [Cl-].[Na+] [NaCl]
- Packed Cell Volume ([1]; NaCl 0 g/L): 0%
- Packed Cell Volume ([1]; NaCl 5 g/L): 6%
- Packed Cell Volume ([1]; NaCl 10 g/L): 6%
- Packed Cell Volume ([1]; NaCl 15 g/L): 6%
- Packed Cell Volume ([1]; NaCl 20 g/L): 5%
- Packed Cell Volume ([1]; NaCl 24 g/L): 5%
- Packed Cell Volume ([1]; NaCl 30 g/L): 5%
- Packed Cell Volume ([2]; NaCl 0 g/L): 0%
- Packed Cell Volume ([2]; NaCl 5 g/L): 5%
- Packed Cell Volume ([2]; NaCl 10 g/L): 5%
- Packed Cell Volume ([2]; NaCl 15 g/L): 4%
- Packed Cell Volume ([2]; NaCl 20 g/L): 5%
- Packed Cell Volume ([2]; NaCl 24 g/L): 5%
- Packed Cell Volume ([2]; NaCl 30 g/L): 5%
- Packed Cell Volume ([3]; NaCl 0 g/L): 0%
- Packed Cell Volume ([3]; NaCl 5 g/L): 2%
- Packed Cell Volume ([3]; NaCl 10 g/L): 5%
- Packed Cell Volume ([3]; NaCl 15 g/L): 5%
- Packed Cell Volume ([3]; NaCl 20 g/L): 6%
- Packed Cell Volume ([3]; NaCl 24 g/L): 6%
- Packed Cell Volume ([3]; NaCl 30 g/L): 6%
